Data as given in patent US20020106384A1, “Cosmetic compositions and methods for lightening the skin” (priority 1999, published 2002).

Tested on: B16-F1 mouse melanoma cells
Experiment: B16 F1 melanoma cell based assay for melanogenesis (melanin content in media)
Conditions: for Melanin (% Control) Alone: 72 hours, absorbance at 530 nm, lower = more inhibition
Method: The ability to inhibit melanin production was assessed using B16 cells, a mouse melanoma cell line.
B16-F1 mouse melanoma cells (obtained from American Type Culture Collection, MD, USA) were maintained in 75 cm^2 culture flasks in RPMI 1640 medium supplemented with L-glutamine (4 mM) and 10% fetal bovine serum (FBS) at 37° C. in a water-saturated, 5% CO2 in air atmosphere. Sub-confluent B16 cells were seeded in 96 well microtiter plates at a density of 5×10^3 cells/well in 200 μl of DMEM containing 10% FBS and 1% penicillin/streptomycin without phenol red at 37° C. under 5% CO2. After 24 hours, the media was replaced with fresh DMEM media containing various compounds at designated concentrations. Cells were incubated for 72 hours at which time melanin was visible in the control well (dark color) where no testing compounds were added.
The amount of melanin produced for each well was quantified by assessing melanin released into the culture media. The pigment containing media from each well was transferred to a clean 96 well plate and the melanin content was quantified by reading the absorbance at 530 nm. Melanin content in each well was calculated as a percent of the control where cells were maintained in DMEM medium or solvent control.
Melanin content in the media was expressed as percent of control, therefore the lower the value is, the more inhibition resulted from the tested compounds.

Compound | inhibitory effects on melanin production (B16 cell assay, dose-dependent) | Melanin (% Control) Alone (co-active alone at 2 mM) [% Control] | Melanin (% Control) Alone (co-active alone at 5 mM) [% Control] | Melanin (% Control) Alone (co-active alone at 10 mM) [% Control] | Melanin (% Control) Alone (co-active alone at 15 mM) [% Control]
CC(O)C(=O)O (racemic) [DL-lactic acid] | strong inhibitory effects | 103.8 ± 20.5 | 98 ± 19.3 | 79 ± 16.8 | 33.5 ± 7.9
N[C@@H](Cc1ccccc1)C(=O)O [L-phenylalanine] |  | 84.9 ± 16.9 | 48.3 ± 10 | 10 ± 2.7 | 49.7 ± 9.9
NC(=O)c1cccnc1 [Niacinamide] |  | 94.8 ± 19 | 83.9 ± 16.7 | 66.1 ± 13 | 50.3 ± 10.2
